Experimental data: patent US20250237010A1, “Selenium Containing Antimicrobial Compound as a Reacitve Dye and Cross-Linking Treatment for Textile Applications” (Texas Tech University System, priority 2021, published 2025)
Where two headings read alike, the source gives them in different places.

What was measured:
[1] = system: gram-negative and gram-positive bacteria; assay: Antimicrobial activity compared with industry requirements; format: cell-based
Excerpt: In one example, the invention is the chemical compound diseleniummonochlorotriazine. Triazines are commonly used in the textile chemistry to synthesis the reactive dye and apply to fabrics as they form covalent bonds with cellulose. Incorporating selenium creates a reactive dye with antimicrobial properties. This same base structure can be used to make diselenocyanuric chloride, diselenocyanuric bromide, diselenocyanuric fluoride, or diselenocyanuric iodine. […] In one example, the antimicrobial agent has the structure: […]

Pseudomonas aeruginosa = assay: Bacterial killing (CFUs/sample) on cotton fabric treated with the organo-selenium compound, Gram-negative; format: cell-based; details: compound attached onto cotton fabric; e.g. Pseudomonas aeruginosa
Excerpt: (§1) FIGS. 1A and 1B are graphs that compares the colony forming units (CFUs) per sample of bacteria on a fabric, showing total bacterial killing with the organoselenium compound, and no killing without the organoselenium compound. In this example, the organoselenium compound was applied to the fabric as a reactive dye.
(§2) The technology modifies triazines, a commonly used reactive dye within the textile chemistry for application to impart colors to fabrics, by incorporation of selenium to create a reactive dye with antimicrobial characteristics. Since the cotton manufacturing/processing industry currently relies on annealing of triazine to create colored fabrics, the presented technology can be incorporated into this sector with minimal changes in the production environment. The created compound, diseleniummonochlorotriazine, was evaluated in the laboratory by attaching the Se-based compound onto cotton fabrics with the following results: (1) Diseleniummonochlorotriazine killed 100% of Gram-positive bacteria (e.g., Staphylococcus aureus) that attempted to bind to the cotton, and (2) Diseleniummonochlorotriazine killed 90% of Gram-negative bacteria. (e.g., Pseudomonas aeruginosa) that attempted to bind to the cotton.
(§3) Example 1. […] The application technique for the organo-selenium compound can be used by, e.g., the textile industry, on an industrial scale to produce an anti-microbial fabric. […]

Staphylococcus aureus = assay: Bacterial killing (CFUs/sample) on cotton fabric treated with the organo-selenium compound, Gram-positive; format: cell-based
Excerpt: as §1, §2, §3

[2] = Binding to cotton and resistance to washing of the resulting fabric; format: physicochemical; details: attached to cotton yarns as reactive dye
Excerpt: Briefly, the inventors developed organo-selenium compounds that can be attached to cotton yarns and is suitable for applications as reactive dye.

Compound | antimicrobial activity level relative to industry expectations/requirements [1] | killed % of Gram-negative bacteria that attempted to bind to the cotton (Pseudomonas aeruginosa) [%] | antimicrobial activity level relative to industry expectations/requirements ([1]; listed as diseleniummonochlorotriazine) | killed % of Gram-positive bacteria that attempted to bind to the cotton (Staphylococcus aureus; compound attached onto cotton fabric, e.g. Staphylococcus aureus) [%] | binding to the cotton and resistance to washing [2] | killing of Staphylococcus aureus on the fabric (CFUs per sample), in words (Staphylococcus aureus; treated cotton fabric, FIG. 1A, applied as reactive dye)
OCC(O)C[Se][Se]CC(O)CO (stereo not shown) | matches or exceed industrial requirements | – | – | – | – | –
Clc1nc([SeH])nc([SeH])n1 [Diseleniummonochlorotriazine, diseleniummonochlorotriazine] | matches industry expectations | 90 | matches or exceed industrial requirements | 100 | – | –
diselenocyanuric chloride | – | – | – | – | resistant to multiple washings | totally kill
